Test results published in PubChem BioAssay AID2060511 (Molecular Pharmacology Branch, DTP, NCI, 2025).
Several values for one entry are separate records, joined by “and”; a condition that tells them apart may be missing. Equal values may be shown once.

Test system: 422866-222-R5-J1-PDC spheroids with HUVEC/MSC, viability
Assay: Anticancer human tumor 422866-222-R5-J1-PDC patient-derived pancreatic adenocarcinoma cell line growth inhibition [GQUAD]
Conditions: for viability, T/C: stronger effect = lower value; active = viability on the fitted dose curve at most 10% of control; inactive = the rest
Source text: DNA G-quadruplex Stabilizer Agents in Combinations in Complex Spheroids
A high-throughput screen of multi-cell type tumor spheroids was designed to identify active combinations of DNA G-quadruplex stabilizer agents and targeted small molecules. Complex spheroids include a stromal component modeled by human endothelial cells (HUVEC) and fibroblasts modeled by human mesenchymal stem cells (MSCs). The concentration ranges selected for each drug and investigational agent were based upon clinically achievable concentrations if the clinical Cmax of the agent was known.
Compounds. The drugs and investigational agents: pidnarulex (CX-5461; NSC782164), APTO-253 (NSC789042), BRACO-19 (NSC847499), peposertib (NSC802822), ceralasertib (NSC780249), elimusertib (NSC800525), camonsertib (NSC841442), AZD-1390 (NSC803789), olaparib (NSC753686), talazoparib (NSC767125), ART-558 (NSC835418), sotorasib (NSC818433), MRTX-1133 (NSC836407), SN-38 (NSC673596), topotecan (NSC609699), etoposide (NSC141540), doxorubicin (NSC123127), gemcitabine (NSC613327), 5-fluorouracil (NSC19893), paclitaxel (NSC125973), vemurafenib (NSC761431), panobinostat (NSC761190), R-306465 (JNJ-16241199; NSC773264), adavosertib (NSC754352), TP-3654 (NSC805149), carboplatin (NSC241240), KSQ-4279 (NSC840948), and staurosporine (NSC755774) were obtained from the National Cancer Institute (NCI) Developmental Therapeutics Program Chemical Repository (34). The FDA-approved anticancer drug set is available from the NCI Developmental Therapeutics Program. […] The stock solutions were prepared in dimethyl sulfoxide (DMSO, Sigma-Aldrich, St. Louis, MO, cat. D2650) at 800-fold the tested concentration and stored at -70 degrees C prior to their use. All drugs and investigational agents were tested over a range starting from a high concentration at or near the clinical Cmax and decreasing in half-log increments. If the clinical Cmax for an agent had not been determined, the highest concentration tested was 10 microM.
2.3 Cell Culture. All cells were maintained in an incubator at 37 degrees C and 5% CO2 with 95% humidity. The PDC lines were cultured according to standard operating procedures established by the NCI PDMR. All PDCs were thawed and cultured in Matrigel-coated flasks prepared with a working solution of 1X Ham's F-12 nutrient mix, without supplementation (Invitrogen, cat. 11765054), 100 U/mL penicillin-streptomycin (Invitrogen, cat. 15140122), and 2.5% Matrigel (Corning Inc., cat. 354248) for the first three passages. The 857933-349-R-J2-PDC line was cultured in 6C/Colon 1B media, which includes advanced DMEM/F-12 (Thermo Fisher Scientific, cat. 12634028), 10 mM HEPES (Thermo Fisher Scientific, cat. 15630080), 1X GlutaMAX supplement (Thermo Fisher Scientific, cat. 35050061), 0.1 mg/mL primocin (InvivoGen, cat. ant-pm-2), 10% defined fetal bovine serum, heat inactivated (HyClone Laboratories Inc., cat. SH30070.03HI), 50% L-WRN conditioned media (ATCC, cat. CRL-3276), 1.25 mM N-Acetyl-L-cysteine (Sigma-Aldrich, cat. A9165), 10 mM nicotinamide (Sigma-Aldrich, cat. N0636), 1X B-27 supplement (Thermo Fisher Scientific, cat. 17504044), 1X N-2 supplement (Thermo Fisher Scientific, cat. 17502048), 10 microM Y-27632 dihydrochloride (Tocris Bioscience, cat. 1254), and 50 ng/mL human EGF recombinant protein (Thermo Fisher Scientific, cat. PHG0311). The 485176-168-R4-J1-PDC line was cultured in Panc media, which includes all 6C/Colon 1B media components plus 100 ng/mL human FGF-10 (Thermo Fisher Scientific, cat. 100-26), 500 nM SB-431542 (Selleckchem, cat. S1067), and gastrin (Tocris, cat. 3006).
[…]

[1] = compound alone, run of 04/16/2024
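Also: spheroids exposed to compounds for seven days before reading.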
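For viability, T/C in this document: percent viability relative to DMSO vehicle control taken as 100%.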

C#Cc1c(F)ccc2cc(O)cc(-c3ncc4c(N5CC6CCC(C5)N6)nc(OCC56CCCN5CC(F)C6)nc4c3F)c12 (stereo unspecified)
inactive: viability, T/C (compound 0.0316 µM) 98.8% and 99.8% and 86.7% | viability, T/C (compound 0.1 µM) 95.5% and 91.4% and 77.4% | viability, T/C (compound 0.316 µM) 94.1% and 82.6% and 77.7% | viability, T/C (compound 1 µM) 60.1% and 79% and 57.5% | viability, T/C (compound 3.16 µM) 41.3% and 43.9% and 36.5% | viability, T/C (compound 10 µM) 29.2% and 39.6% and 26.7%
1770 nM and 2700 nM and 1530 nM: IC50 (curve of compound)

C=CCn1c(=O)c2cnc(Nc3ccc(N4CCN(C)CC4)cc3)nc2n1-c1cccc(C(C)(C)O)n1
inactive: viability, T/C (compound 0.0316 µM) 80.3% and 112% and 88.7% | viability, T/C (compound 0.1 µM) 106% and 90.1% and 74.5% | viability, T/C (compound 0.316 µM) 125% and 67.2% and 52.5% | viability, T/C (compound 1 µM) 143% and 39.7% and 40.5% | viability, T/C (compound 3.16 µM) 172% and 31.3% and 30.6% | viability, T/C (compound 10 µM) 99.8% and 32.3% and 27.9%

CC(=O)O[C@H]1C(=O)[C@@]2(C)[C@H]([C@H](OC(=O)c3ccccc3)[C@]3(O)C[C@H](OC(=O)[C@H](O)[C@@H](NC(=O)c4ccccc4)c4ccccc4)C(C)=C1C3(C)C)[C@]1(OC(C)=O)CO[C@@H]1C[C@@H]2O
inactive: viability, T/C (compound 0.0316 µM) 96% and 75.6% and 77.1% | viability, T/C (compound 0.1 µM) 89.9% and 64.8% and 64.4% | viability, T/C (compound 0.316 µM) 82.1% and 66.5% and 76.9% | viability, T/C (compound 1 µM) 47.7% and 68.6% and 75.5% | viability, T/C (compound 3.16 µM) 39.7% and 75% and 67.1%
1460 nM and > 10000 nM: IC50 (curve of compound)

CC(C)(O)C1CCC(Nc2ccc3ncc(-c4cccc(C(F)(F)F)c4)n3n2)CC1 (stereo unspecified)
1000 nM and 1950 nM and 2840 nM: IC50 (curve of compound)
inactive: viability, T/C (compound 0.0316 µM) 94.3% and 83.6% and 92% | viability, T/C (compound 0.1 µM) 82.7% and 87.6% and 89.7% | viability, T/C (compound 0.316 µM) 73.7% and 75.8% and 103% | viability, T/C (compound 1 µM) 47.5% and 75.1% and 71% | viability, T/C (compound 3.16 µM) 35% and 31.5% and 45% | viability, T/C (compound 10 µM) 24.6% and 32.1% and 50.8%

CCCS(=O)(=O)Nc1ccc(F)c(C(=O)c2c[nH]c3ncc(-c4ccc(Cl)cc4)cc23)c1F
inactive: viability, T/C (compound 0.0316 µM) 96.7% and 101% and 93.4% | viability, T/C (compound 0.1 µM) 99.6% and 95.4% (2×) | viability, T/C (compound 0.316 µM) 60% and 140% and 121% | viability, T/C (compound 1 µM) 45.6% and 153% and 136% | viability, T/C (compound 3.16 µM) 32.6% and 184% and 167% | viability, T/C (compound 10 µM) 32.6% and 108% and 52.1%

COc1ncnc(C2CC2)c1-c1ncc2cnn(Cc3ccc(-c4nc(C(F)(F)F)cn4C(C)C)cc3)c2n1
> 10000 nM and 6450 nM: IC50 (curve of compound)
inactive: viability, T/C (compound 0.0316 µM) 91.6% and 95% and 118% | viability, T/C (compound 0.1 µM) 94% and 105% and 97% | viability, T/C (compound 0.316 µM) 92.3% and 121% and 97.5% | viability, T/C (compound 1 µM) 79.7% and 102% and 98.1% | viability, T/C (compound 3.16 µM) 97% and 60.6% and 99.1% | viability, T/C (compound 10 µM) 117% and 43.5% and 105%

Cc1[nH]c2ccc(F)cc2c1-c1nc2c3cccnc3c3ncccc3c2[nH]1
inactive: viability, T/C (compound 3.16 µM) 84.5% [middle of 12 runs]
> 10000 nM: IC50 [1] | IC50 (compound alone, run of 04/22/2024)

Cc1cnc(CNC(=O)c2c(=O)c3ccc(N4CCCN(C)CC4)nc3n3c2sc2ccccc23)cn1
> 10000 nM: IC50 [1]
inactive: viability, T/C (compound 0.1 µM) 96.7% [middle of 12 runs] | viability, T/C (compound 0.316 µM) 90.4% [middle of 12 runs] | viability, T/C (compound 1 µM) 85.3% [middle of 12 runs] | viability, T/C (compound 3.16 µM) 87.8% [middle of 12 runs] | viability, T/C (compound 10 µM) 81% [middle of 11 runs]

O=C(NO)c1cnc(N2CCN(S(=O)(=O)c3ccc4ccccc4c3)CC2)nc1
inactive: viability, T/C (compound 0.0316 µM) 69.6% and 96.6% and 94.7% | viability, T/C (compound 0.1 µM) 70.9% and 105% and 90% | viability, T/C (compound 0.316 µM) 69.7% and 92.5% and 88.2% | viability, T/C (compound 1 µM) 67% and 52.3% and 58.2% | viability, T/C (compound 3.16 µM) 74.3% and 29.5% and 37.5%
> 10000 nM and 1340 nM and 1730 nM: IC50 (curve of compound)

CC(C)n1c(=O)n(C)c2cnc3cc(F)c(-c4ccc(OCCCN5CCCCC5)nc4)cc3c21 + CN(C)c1ccc(Nc2c3ccc(NC(=O)CCN4CCCC4)cc3nc3cc(NC(=O)CCN4CCCC4)ccc23)cc1
> 10000 nM: IC50 (curve of first compound, second compound 0.0316 µM) | IC50 (curve of first compound, second compound 0.1 µM) | IC50 (curve of first compound, second compound 0.316 µM) | IC50 (curve of first compound, second compound 1 µM) | IC50 (curve of first compound, second compound 3.16 µM) | IC50 (curve of first compound, second compound 10 µM)
inactive: viability, T/C (second compound 0.0316 µM, first compound 0.0316 µM) 99.8% | viability, T/C (second compound 0.0316 µM, first compound 0.1 µM) 99% | viability, T/C (second compound 0.0316 µM, first compound 0.316 µM) 93.5% | viability, T/C (second compound 0.0316 µM, first compound 1 µM) 96% | viability, T/C (second compound 0.0316 µM, first compound 3.16 µM) 103% | viability, T/C (second compound 0.0316 µM, first compound 10 µM) 67.1% | viability, T/C (second compound 0.1 µM, first compound 0.0316 µM) 100% | viability, T/C (second compound 0.1 µM, first compound 0.1 µM) 78.5% | viability, T/C (second compound 0.1 µM, first compound 0.316 µM) 101% | viability, T/C (second compound 0.1 µM, first compound 1 µM) 90.5% | viability, T/C (second compound 0.1 µM, first compound 3.16 µM) 90.7% | viability, T/C (second compound 0.1 µM, first compound 10 µM) 70% | viability, T/C (second compound 0.316 µM, first compound 0.0316 µM) 103% | viability, T/C (second compound 0.316 µM, first compound 0.1 µM) 95.4% | viability, T/C (second compound 0.316 µM, first compound 0.316 µM) 92.4% | viability, T/C (second compound 0.316 µM, first compound 1 µM) 81.2% | viability, T/C (second compound 0.316 µM, first compound 3.16 µM) 88.8% | viability, T/C (second compound 0.316 µM, first compound 10 µM) 70.2% | viability, T/C (second compound 1 µM, first compound 0.0316 µM) 87.2% | viability, T/C (second compound 1 µM, first compound 0.1 µM) 92.5% | viability, T/C (second compound 1 µM, first compound 0.316 µM) 87.9% | viability, T/C (second compound 1 µM, first compound 1 µM) 98.6% | viability, T/C (second compound 1 µM, first compound 3.16 µM) 83.8% | viability, T/C (second compound 1 µM, first compound 10 µM) 55.1% | viability, T/C (second compound 3.16 µM, first compound 0.0316 µM) 82.8% | viability, T/C (second compound 3.16 µM, first compound 0.1 µM) 80.1% | viability, T/C (second compound 3.16 µM, first compound 0.316 µM) 86.8% | viability, T/C (second compound 3.16 µM, first compound 1 µM) 88.9% | viability, T/C (second compound 3.16 µM, first compound 3.16 µM) 81.6% | viability, T/C (second compound 3.16 µM, first compound 10 µM) 61.6% | viability, T/C (second compound 10 µM, first compound 0.0316 µM) 73.8% | viability, T/C (second compound 10 µM, first compound 0.1 µM) 80.9% | viability, T/C (second compound 10 µM, first compound 0.316 µM) 80.4% | viability, T/C (second compound 10 µM, first compound 1 µM) 64.3% | viability, T/C (second compound 10 µM, first compound 3.16 µM) 68.5% | viability, T/C (second compound 10 µM, first compound 10 µM) 51.7%
